# Measured values taken from PMC6753226, “Highly Efficient Preparation of Cyclic Dinucleotides via Engineering of Dinucleotide Cyclases in Escherichia coli” (Frontiers in Microbiology, 2019).
# Target: T1, STING (Homo sapiens, UniProt Q86WV6, H232R)
# T1 construct: gene STING1; carboxy-terminal domain (STING^R232/CTD; CTD printed as residues 149–379)
# Experiment: isothermal titration calorimetry (ITC)
# Format: binding
# T1 sequence (Q86WV6 149-379 H232R): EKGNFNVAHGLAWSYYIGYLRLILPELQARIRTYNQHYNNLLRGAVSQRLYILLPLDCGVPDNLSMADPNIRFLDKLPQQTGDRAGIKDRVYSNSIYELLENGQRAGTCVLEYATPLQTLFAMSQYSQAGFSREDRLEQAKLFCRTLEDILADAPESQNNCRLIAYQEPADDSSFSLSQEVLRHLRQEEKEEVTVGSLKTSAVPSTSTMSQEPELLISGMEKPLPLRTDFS
structure (smiles),measurement,value
Nc1nc2c(ncn2[C@@H]2O[C@@H]3CO[P@](=O)(O)O[C@H]4[C@@H](O)[C@H](n5cnc6c(=O)[nH]c(N)nc65)O[C@@H]4CO[P@](=O)(O)O[C@H]3[C@H]2O)c(=O)[nH]1 [c-di-GMP],Kd,4.09 µM
